In patent publication US12617752B2, “Rapidly metabolized lipid compound” (Beijing Jitai Life Sciences Ltd, priority 2023, dated 2026):

Assays:
[1] = tested on: C57BL/6 mice; test: In vivo delivery of luciferase mRNA lipid nanoparticles in mice (bioluminescence imaging); conditions: intravenous, single dose 0.5 mg/kg luciferase mRNA
In short: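 Female C57BL/6 mice, 6-8 weeks old, received luciferase mRNA lipid nanoparticles as a single intravenous dose of 0.5 mg/kg mRNA. At 6 h, D-luciferin given intraperitoneally; 10 min later, mice were imaged under isoflurane anaesthesia. Values are group mean fluorescence intensity and total photon count.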

[2] = Encapsulation efficiency of lipid nanoparticles (Quant-it RiboGreen RNA Assay); assay type: physicochemical; conditions: lipid nanoparticles with luciferase mRNA
In short: (§1)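 LNPs of ionizable lipid/cholesterol/phospholipid/PEG-lipid (50/38.5/10/1.5 mol%, N/P 6) were formed by microfluidic mixing with mRNA in pH 4.5 acetate, then buffer-exchanged by ultrafiltration. Size and PDI were measured by DLS. Encapsulation came from RiboGreen fluorescence (485/528 nm) in TE pH 7.5, with and without 0.5% Triton at 37 °C for 30 min.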

[3] = Particle size and PDI of lipid nanoparticles by dynamic light scattering; assay type: physicochemical; conditions: lipid nanoparticles with luciferase mRNA; ionizable lipid/cholesterol/DSPC/DMG-PEG2000 50/38.5/10/1.5 mol%
In short: as §1

| Encapsulation efficiency (%) [2] [%] | Particle size (nm) [3] [nm] | Particle-size distribution (PDI) [3] | Compound | Total photon count in vivo at 6 hours after administration (Total Flux) [1] |
| --- | --- | --- | --- | --- |
| 94.65 | 90.37 | 0.11 | CCCCCCCCCCC(=O)OCCC(C)(C)CCCCN(CCCCO)CCCCCCCC(=O)OC(CCCCCCCCC)CCCCCCCCC [55b] | 1.02E+11 |
| 93.87 | 98.59 | 0.16 | CCCCCCCCCC(=O)OCCC(C)(C)CCCCN(CCO)CCCCCCCC(=O)OCC(CCCCCCC)CCCCCCC [56b] | 8.35E+10 |
| 94.15 | 98.23 | 0.18 | CCCCCCCCCC(=O)OCCCC(C)(C)CCCN(CCO)CCCCCCCC(=O)OCC(CCCCCCC)CCCCCCC [57b] | 3.86E+10 |
| 68.54 | 187.50 | 0.18 | CCCCCCCCCNC(=O)CCCCCCCN(CCO)CCCCCCC(C)(C)C(=O)OC(CCCCCCCC)CCCCCCCC [58a] | 2.72E+10 |
| 92.88 | 112.93 | 0.15 | CCCCCCCCCC(=O)OCC1(CCCCCN(CCCO)CCCCCCCC(=O)OCC(CCCCCCC)CCCCCCC)CC1 [58b] | 6.17E+10 |
| 80.27 | 127.23 | 0.12 | CCCCCCCCCC(=O)OCCC(C)(C)CCCCN(CCCCO)CCCCCCCC(=O)OCC(CCCCCCC)CCCCCCC [59b] | 1.04E+11 |
| 97.44 | 92.74 | 0.15 | CCCCCCCCCCOC(=O)CCCCC(C)(C)CCN(CCCCCCCC(=O)OC(CCCCCCCCC)CCCCCCCCC)C(=O)SCCCCN(C)C [60a] | 1.75E+10 |
| 95.87 | 111.90 | 0.09 | CCCCCCCCCOC(=O)CCCCC(C)(C)CCN(CCCCCCCC(=O)OCC(CCCCCCC)CCCCCCC)C(=O)SCCCN(C)C [61a] | 1.32E+10 |
| 89.88 | 98.07 | 0.17 | CCCCCCCCCCCOC(=O)CCCCCN(CCO)CCCCC(C)(C)CCC(=O)OC(CCCCCCCC)CCCCCCCC [62a] | 1.20E+10 |
| 84.27 | 165.53 | 0.09 | CCCCCCCCCCC(=O)OCC(C)(C)CCCCCN(CCCCO)CCCCCCCC(=O)OCCCC(CCCCCC)CCCCCC [63b] | 2.72E+10 |
| 96.72 | 86.99 | 0.15 | CCCCCCCCCCCOC(=O)CCCCC(C)(C)CCN(CCO)CCCCCCCC(=O)OC(CCCCCCCCCC)CCCCCCCCCC [64a] | 9.82E+10 |
| 89.27 | 143.67 | 0.09 | CCCCCCCCCC(=O)OCCCC(C)(C)CCCN(CCCCO)CCCCCCCC(=O)OCC(CCCCCCC)CCCCCCC [64b] | 3.36E+10 |
| 95.93 | 95.88 | 0.16 | CCCCCCCCCCOC(=O)CCCCC(C)(C)CCN(CCO)CCCCCCCC(=O)OCC(CCCCCCCC)CCCCCCCC [65a] | 6.53E+10 |
| 97.75 | 80.60 | 0.16 | CCCCCCCC(CCCCCCC)COC(=O)CCCCCCCN(CCO)CCCCCC(C)(C)COC(=O)CC(CCCCCCC)CCCCCCC [65b] | 1.25E+11 |
| 92.88 | 105.77 | 0.11 | CCCCCCCCCCOC(=O)CCCCC(C)(C)CCN(CCCO)CCCCCCCC(=O)OC(CCCCCCCCC)CCCCCCCCC [66a] | 9.31E+10 |
| 97.18 | 81.83 | 0.17 | CCCCCCCCCC(CCCCCCCCC)OC(=O)CCCCCCCN(CCO)CCCCCC(C)(C)COC(=O)CCCC(CCCCCC)CCCCCC [66b] | 4.35E+10 |

| Encapsulation efficiency (%) [2] [%] | Particle size (nm) [3] [nm] | Particle-size distribution (PDI) [3] | Compound | Total photon count in vivo at 6 hours after administration (Total Flux) [1] |
| --- | --- | --- | --- | --- |
| 91.57 | 111.33 | 0.06 | CCCCCCCCCCOC(=O)CCCCC(C)(C)CCN(CCCCO)CCCCCCCC(=O)OC(CCCCCCCCC)CCCCCCCCC [67a] | 6.07E+10 |
| 96.30 | 88.28 | 0.23 | CCCCCCCCCC(=O)OCC(C)(C)CCCCCN(CCO)CCCCCCC(=O)OCC(CCCCCCCC)CCCCCCCC [67b] | 1.71E+11 |
| 94.47 | 103.93 | 0.04 | CCCCCCCCCCCOC(=O)CCCCC(C)(C)CCN(CCCCO)CCCCCCCC(=O)OC(CCCCCCCCCC)CCCCCCCCCC [68a] | 7.55E+10 |
| 96.31 | 88.33 | 0.20 | CCCCCCCCCC(=O)OCC(C)(C)CCCCCN(CCO)CCCCCCC(=O)OCCC(CCCCCCC)CCCCCCC [68b] | 2.88E+11 |
| 96.65 | 107.20 | 0.34 | CCCCCCCCCOC(=O)CCCCC(C)(C)CCN(CCO)CCCCCC(=O)OCC(CCCCCCCCC)CCCCCCCCC [69a] | 7.41E+10 |
| 93.85 | 99.05 | 0.13 | CCCCCCCCCC(=O)OCC(C)(C)CCCCCN(CCCCO)CCCCCCC(=O)OCC(CCCCCCCC)CCCCCCCC [69b] | 1.52E+11 |
| 96.69 | 86.08 | 0.15 | CCCCCCCCCOC(=O)CCCCC(C)(C)CCN(CCO)CCCCCCC(=O)OCC(CCCCCCCC)CCCCCCCC [70a] | 9.33E+10 |
| 96.91 | 96.20 | 0.09 | CCCCCCCCCC(=O)OCC(C)(C)CCCCCN(CCCCO)CCCCCCC(=O)OCCC(CCCCCCC)CCCCCCC [70b] | 1.15E+11 |
| 95.95 | 95.59 | 0.17 | CCCCCCCCCC(=O)OCCCC(C)(C)CCCN(CCO)CCCCCCCC(=O)OCCC(CCCCCC)CCCCCC [71b] | 1.70E+11 |
| 95.13 | 92.45 | 0.12 | CCCCCCCCCCC(=O)OCCCCC(C)(C)CCN(CCO)CCCCCCCC(=O)OCCC(CCCCCCC)CCCCCCC [72b] | 7.01E+10 |
| 94.92 | 93.18 | 0.17 | CCCCCCCCCC(=O)OCCCC(C)(C)CCCN(CCO)CCCCCCC(=O)OCCC(CCCCCCC)CCCCCCC [74b] | 7.13E+10 |
| 95.99 | 91.60 | 0.19 | CCCCCCCCCC(=O)OCCCC(C)(C)CCCN(CCO)CCCCCCC(=O)OCCCC(CCCCCC)CCCCCC [75b] | 7.05E+10 |
| 94.97 | 91.27 | 0.18 | CCCCCCCCCC(=O)OCC(C)(C)CCCCCN(CCCO)CCCCCCC(=O)OCC(CCCCCCCC)CCCCCCCC [76b] | 9.41E+10 |
| 95.88 | 93.16 | 0.16 | CCCCCCCCCC(=O)OCC(C)(C)CCCCCN(CCCO)CCCCCCC(=O)OCCC(CCCCCCC)CCCCCCC [77b] | 9.72E+10 |
| 92.27 | 98.88 | 0.12 | CCCCCCCCCCC(=O)OCC(C)(C)CCCCCN(CCCCO)CCCCCCC(=O)OCC(CCCCCCCCC)CCCCCCCCC [78b] | 5.51E+10 |

| Compound | Encapsulation efficiency (%) [2] [%] | Particle size (nm) [3] [nm] | Particle-size distribution (PDI) [3] | Total photon count in vivo at 6 hours after administration (Total Flux) [1] |
| --- | --- | --- | --- | --- |
| CCCCCC#CCCOC(=O)CCCCCCCN(CCO)CCCCCCC(C)(C)C(=O)OC(CCCCCCCC)CCCCCCCC [55a] | 73.85 | 126.17 | 0.16 | 1.96E+10 |
| CCCCCC/C=C\COC(=O)CCCCCCCN(CCO)CCCCCCC(C)(C)C(=O)OC(CCCCCCCC)CCCCCCCC [57a] | 95.41 | 79.17 | 0.17 | 3.42E+10 |
